Among the data in patent publication US9120749B2, “Quinoline derivatives and MELK inhibitors containing the same” (ONCOTHERAPY SCIENCE, INC., priority 2010, dated 2015) are IC50 values, retold here.

The structures appear in SMILES notation. Where two headings read alike, the source gives them in different places.

One test addresses MELK (Homo sapiens, UniProt Q14680). Kind of test: Kinase assay: MELK activity, phosphorylation of FITC-labeled histone H3 peptide measured by IMAP fluorescence polarization. The class given is biochemical. The method in brief: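 Substrate is FITC-labeled histone H3 peptide. Compounds come from a 12.5 mM DMSO stock, diluted so assay DMSO is 1%. The stop step adds threefold-volume progressive binding solution, followed by 0.5 h at room temperature and an FP read.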

The test system of a further test is T47D cells. Kind of test: Cell-based assay: anti-proliferative activity, Cell Counting Kit-8, 72 hours (T47D). Particulars: Homo sapiens, T47D, 72 h. The method in brief: (§1)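 IC50 values come from CCK-8 growth measurements taken 72 hours post-treatment of plated cells with test compounds. Expression of MELK across the panel was assessed through immunoblot of unfractionated lysates.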
For orientation: Tetrazolium assays rely on reduction of a dye to a coloured formazan, in cell work by metabolically active cells.

The next test deals with A549 cells. The test is described as follows: Cell-based assay: anti-proliferative activity, Cell Counting Kit-8, 72 hours (A549). Particulars: Homo sapiens, A549, 72 h, 72 hours. The method in brief:
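A549 cells were seeded in 96-well plates and exposed to candidate inhibitors for 72 hours. Cell growth was then measured with Cell Counting Kit-8, and IC50 values were calculated from the resulting growth data.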

A further test deals with HT-1197 cells. Kind of test: Cell-based assay: anti-proliferative activity, Cell Counting Kit-8, 72 hours (HT-1197, negative control without MELK expression). Particulars: Homo sapiens, HT1197, 72 h, HT1197 cells (negative control), 72 hours. The method in brief: as §1
A further test deals with DU4475 cells. The test is described as follows: Cell-based assay: anti-proliferative activity, Cell Counting Kit-8, 72 hours (DU4475). Conditions: Homo sapiens, DU-4475, 72 h.
[1] abbreviates: read-out: IC50 (μM) (kinase assay).

Sequence of MELK (Q14680 whole entry, looked up): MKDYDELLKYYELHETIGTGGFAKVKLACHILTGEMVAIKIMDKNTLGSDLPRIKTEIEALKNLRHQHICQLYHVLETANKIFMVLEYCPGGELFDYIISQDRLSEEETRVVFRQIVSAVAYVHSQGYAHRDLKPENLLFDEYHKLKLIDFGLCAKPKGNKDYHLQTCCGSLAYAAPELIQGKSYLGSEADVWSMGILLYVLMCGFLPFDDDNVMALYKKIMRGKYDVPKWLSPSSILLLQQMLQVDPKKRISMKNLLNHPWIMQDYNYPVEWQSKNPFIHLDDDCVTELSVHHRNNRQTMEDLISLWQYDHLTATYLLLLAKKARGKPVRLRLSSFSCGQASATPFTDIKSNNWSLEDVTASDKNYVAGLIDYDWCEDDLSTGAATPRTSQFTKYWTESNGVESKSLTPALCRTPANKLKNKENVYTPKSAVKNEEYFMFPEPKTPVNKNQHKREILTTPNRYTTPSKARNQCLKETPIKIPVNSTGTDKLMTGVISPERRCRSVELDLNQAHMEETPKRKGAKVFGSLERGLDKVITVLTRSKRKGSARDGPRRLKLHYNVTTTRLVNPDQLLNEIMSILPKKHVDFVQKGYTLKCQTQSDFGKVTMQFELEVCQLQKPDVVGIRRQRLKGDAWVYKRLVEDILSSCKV

As to `CC(=O)c1cnc2ccc(-c3cc(F)c(O)c(Cl)c3)cc2c1Nc1cnc(N2CCNCC2)nc1` [Example 594, 1-(6-(3-chloro-5-fluoro-4-hydroxyphenyl)-4-(2-(piperazin-1-yl)pyrimidin-5-ylamino)quinolin-3-yl)ethanone], the IC50 on MELK (setting [1]) came to 0.0048 µM; with T47D cells, 0.025 µM; with A549 cells, 0.063 µM; in the test with HT-1197 cells, 0.66 µM; in the test on DU4475 cells it was 0.048 µM.
In the same order, the values of `O=C(c1cnc2ccc(-c3cc(F)c(O)c(Cl)c3)cc2c1Nc1ccc(N2CCNCC2)cn1)C1CC1` [Example 525, (6-(3-chloro-5-fluoro-4-hydroxyphenyl)-4-(5-(piperazin-1-yl)pyridin-2-ylamino)quinolin-3-yl)(cyclopropyl)methanone] are 0.0048 µM, 0.48 µM, 1.7 µM, 11 µM and 0.46 µM.
The like results for `O=C(c1cnc2ccc(-c3ccc(O)c(Cl)c3)cc2c1Nc1cnn(C2CCNCC2)c1)C1CC1` [Example 519, (6-(3-chloro-4-hydroxyphenyl)-4-((1-(piperidin-4-yl)-1H-pyrazol-4-yl)amino)quinolin-3-yl)(cyclopropyl)methanone] were, in that order, 0.003 µM, 0.12 µM, 0.14 µM, 1.6 µM and 0.1 µM.
The like results for `COc1cc(-c2ccc3ncc(C(=O)C4CC4)c(Nc4ccc(N5CCC(N)C5)nc4)c3c2)cc(Cl)c1O` (stereo not shown) [Example 568, (4-(6-(3-aminopyrrolidin-1-yl)pyridin-3-ylamino)-6-(3-chloro-4-hydroxy-5-methoxyphenyl)quinolin-3-yl)(cyclopropyl)methanone] were, in that order, 0.0027 µM, 0.057 µM, 0.082 µM, 0.62 µM and 0.045 µM.
In the case of `COc1cc(-c2ccc3ncc(C(=O)C4CC4)c(C4=CCNCC4)c3c2)cc(Cl)c1O` [Example 516, (6-(3-chloro-4-hydroxy-5-methoxyphenyl)-4-(1,2,3,6-tetrahydropyridin-4-yl)quinolin-3-yl)(cyclopropyl)methanone], the concentration for half-maximal inhibition (IC50) is 0.0044 µM at MELK (setting [1]); 0.52 µM in the test with T47D cells; 0.36 µM in the test on A549 cells; 3 µM in the test on HT-1197 cells; 0.66 µM in the test with DU4475 cells.
The like results for `C=CCN(CC=C)C1(C)CCC(Nc2c(C(=O)C3CC3)cnc3ccc(-c4cc(Cl)c(O)c(Cl)c4)cc23)CC1` (stereo not shown) [Example 583, Cyclopropyl{4-[4-(diallylamino)-4-methylcyclohexylamino]-6-(3,5-dichloro-4-hydroxyphenyl)quinolin-3-yl}methanone] were, in that order, 0.089 µM, 2.6 µM, 3.1 µM, 10 µM and 2.3 µM.
The like results for `CCCC(=O)c1cnc2ccc(-c3cc(Cl)c(O)c(OC)c3)cc2c1N[C@H]1CC[C@H](N)CC1` [Example 529, 1-(4-((trans-4-aminocyclohexyl)amino)-6-(3-chloro-4-hydroxy-5-methoxyphenyl)quinolin-3-yl)butan-1-one] were, in that order, 0.0038 µM, 0.081 µM, 0.15 µM, 1.5 µM and 0.076 µM.
Regarding `NC1CCN(c2ccc(Nc3c(C(=O)C4CC4)cnc4ccc(-c5cc(F)c(O)c(Cl)c5)cc34)cn2)CC1` [Example 557, (4-(6-(4-aminopiperidin-1-yl)pyridin-3-ylamino)-6-(3-chloro-5-fluoro-4-hydroxyphenyl)quinolin-3-yl)(cyclopropyl)methanone], the IC50 on MELK turned out to be 0.0056 µM; with T47D cells it was 0.11 µM; with A549 cells, 0.52 µM; in the test on HT-1197 cells, 3.1 µM; in the test on DU4475 cells it was 0.18 µM.
For the compound `COc1cc(-c2ccc3ncc(C(=O)C4CC4)c(N[C@H]4CC[C@H](CN5CC[C@@H](F)C5)CC4)c3c2)cc(Cl)c1O` [Example 569], the 50% inhibitory concentration (IC50) on MELK (setting [1]) is 0.011 µM; in the test with T47D cells, 0.62 µM; in the test on A549 cells, 0.4 µM; in the test with HT-1197 cells it was 1.8 µM; in the test on DU4475 cells, 0.41 µM.
As for `O=C(c1cnc2ccc(-c3cc(F)c(O)c(Cl)c3)cc2c1N[C@H]1CC[C@H](CN2CCCC2)CC1)C1CC1` [Example 587, (6-(3-chloro-5-fluoro-4-hydroxyphenyl)-4-((trans-4-(pyrrolidin-1-ylmethyl)cyclohexyl)amino)quinolin-3-yl)(cyclopropyl)methanone], the IC50 on MELK (setting [1]) came out at 0.0032 µM; with T47D cells, 0.11 µM; with A549 cells, 0.084 µM; in the test on HT-1197 cells, 0.55 µM; in the test on DU4475 cells it was 0.065 µM.
In the same order, the values of `CN(C)Cc1ccc(Nc2c(C(=O)C3CC3)cnc3cc(F)c(-c4cc(F)c(O)c(Cl)c4)cc23)cc1` [Example 541, (6-(3-Chloro-5-fluoro-4-hydroxyphenyl)-4-(4-((dimethylamino)methyl)phenylamino)-7-fluoroquinolin-3-yl)(cyclopropyl)methanone] are 0.077 µM, 0.42 µM, 0.076 µM, 1.1 µM and 0.087 µM.
In the same order, the values of `NC1CCCN(c2ncc(Nc3c(C(=O)C4CC4)cnc4ccc(-c5cc(Cl)c(O)c(Cl)c5)cc34)cn2)C1` (stereo not shown) [Example 628, (4-(2-(3-aminopiperidin-1-yl)pyrimidin-5-ylamino)-6-(3,5-dichloro-4-hydroxyphenyl)quinolin-3-yl)(cyclopropyl)methanone] are 0.0015 µM, 0.0069 µM, 0.019 µM, 0.33 µM and 0.0056 µM.
In the same order, the values of `NC1CCN(c2ccc(Nc3c(C(=O)C4CC4)cnc4ccc(-c5cc(Cl)c(O)c(Cl)c5)cc34)cn2)C1` (stereo not shown) [Example 575, (4-(6-(3-aminopyrrolidin-1-yl)pyridin-3-ylamino)-6-(3,5-dichloro-4-hydroxyphenyl)quinolin-3-yl)(cyclopropyl)methanone] are 0.0031 µM, 0.028 µM, 0.068 µM, 1.2 µM and 0.029 µM.
On to `CN[C@H]1CC[C@H](Nc2c(C(C)=O)cnc3ccc(-c4cc(Cl)c(O)c(OC)c4)cc23)CC1` [Example 542], for which the IC50 at MELK (setting [1]) worked out at 0.0043 µM; in the test with T47D cells, 0.078 µM; with A549 cells, 0.1 µM; with HT-1197 cells, 1.7 µM; with DU4475 cells, 0.069 µM.
The like results for `COc1cc(-c2ccc3ncc(C(=O)C4CC4)c(Nc4ccc(N)nc4)c3c2)cc(Cl)c1O` [Example 589, (4-(6-aminopyridin-3-ylamino)-6-(3-chloro-4-hydroxy-5-methoxyphenyl)quinolin-3-yl)(cyclopropyl)methanone] were, in that order, 0.011 µM, 0.61 µM, 0.18 µM, 1.4 µM and 0.21 µM.
`CN1CCC(n2cc(Nc3c(C(=O)C4CC4)cnc4ccc(-c5cc(Cl)c(O)c(Cl)c5)cc34)cn2)CC1` [Example 593, Cyclopropyl(6-(3,5-dichloro-4-hydroxyphenyl)-4-(1-(1-methylpiperidin-4-yl)-1H-pyrazol-4-ylamino)quinolin-3-yl)methanone]: the IC50 was found to be 0.0013 µM at MELK (setting [1]); 0.32 µM in the test with T47D cells; 0.094 µM in the test on A549 cells; 4.3 µM in the test on HT-1197 cells; 0.044 µM in the test on DU4475 cells.
For `CCCC(=O)c1cnc2ccc(-c3cnc(C#N)nc3)cc2c1Nc1ccc(CN(C)C)cc1` [Example 539, 5-(3-butyryl-4-(4-((dimethylamino)methyl)phenylamino)quinolin-6-yl)pyrimidine-2-carbonitrile], the IC50 at MELK (setting [1]) came to 0.0038 µM; with T47D cells, 0.37 µM; in the test on A549 cells it was 1.6 µM; in the test with HT-1197 cells, 1.6 µM; with DU4475 cells, 1.5 µM.
Turning to `COc1cc(-c2ccc3ncc(C(=O)C4CC4)c(N[C@H]4CC[C@@H](CN(C)C)CC4)c3c2)cc(Cl)c1O` [Example 513], the IC50 was 0.002 µM at MELK (setting [1]); 0.19 µM with T47D cells; 0.099 µM with A549 cells; 3.8 µM with HT-1197 cells; 0.086 µM in the test on DU4475 cells.
As to `NC1CCCN(c2ccc(Nc3c(C(=O)C4CC4)cnc4ccc(-c5cc(F)c(O)c(Cl)c5)cc34)cn2)C1` (stereo not shown) [Example 561, (4-(6-(3-aminopiperidin-1-yl)pyridin-3-ylamino)-6-(3-chloro-5-fluoro-4-hydroxyphenyl)quinolin-3-yl)(cyclopropyl)methanone], the IC50 on MELK (setting [1]) is 0.0027 µM; with T47D cells, 0.0055 µM; with A549 cells, 0.008 µM; in the test with HT-1197 cells, 0.3 µM; in the test on DU4475 cells it was 0.0066 µM.
In the same order, the values of `CN1CCC(n2cc(Nc3c(C(=O)C4CC4)cnc4ccc(-c5cc(F)c(O)c(Cl)c5)cc34)cn2)CC1` [Example 592, (6-(3-Chloro-5-fluoro-4-hydroxyphenyl)-4-(1-(1-methylpiperidin-4-yl)-1H-pyrazol-4-ylamino)quinolin-3-yl)(cyclopropyl)methanone] are 0.0015 µM, 0.24 µM, 0.13 µM, 2.8 µM and 0.068 µM.

As a reminder, the IC50 is the concentration at which inhibition is half-maximal.
